This is an account of results in article PMC6321014, “Effects of Toona sinensis Leaf Extract and Its Chemical Constituents on Xanthine Oxidase Activity and Serum Uric Acid Levels in Potassium Oxonate-Induced Hyperuricemic Rats” (Molecules, 2018).

“And” between values parts separate entries of the source, which are not always exact repeats. Equal values may be shown once. “Also recorded” adds a separate entry of the source. Read-outs that look alike come from different tables or passages of the source.

Experiment [1] concerns potassium oxonate-induced hyperuricemic rats. Briefly: Serum uric acid levels in potassium oxonate (PO)-induced hyperuricemic rats. The experiment is classed as in vivo, rat (male Sprague-Dawley). To be noted: for effect on serum uric acid levels (in words): 40 mg/kg, PO-induced hyperuricemic rats. The protocol:
Male Sprague–Dawley rats (7 weeks old) were purchased from Orient Bio (Seongmam, Korea) and were housed at a temperature of 22 ± 1 °C with 50 ± 10% humidity under a 12 h light/dark cycle with free access to a laboratory diet and water. The experimental design was approved by the Committee on Animal Care of the Korea Institute of Oriental Medicine, and all experiments were performed in accordance with committee guidelines. The uricase inhibitor PO was administered to induce hyperuricemia. The rats were divided into the following five groups (n = 6/group): (1) Normal control group; […] (3) PO + 300 mg/kg TSE group; […] Blood samples were collected via cardiac puncture under anesthesia 2 h after oral treatment. Serum was obtained by centrifugation of blood at 3000× g for 10 min at 4 °C. The separated serum was stored at −80 °C until analysis. Serum uric acid levels were determined by an enzymatic-colorimetric method using a commercial assay kit (Biovision, Milpitas, CA, USA) according to the manufacturer’s protocol.

Experiment [2] addresses T1, xanthine oxidase (XO) enzyme (bovine milk) (Bos taurus, UniProt P80457).
T1 construct: 20 µL of 0.2 unit XO enzyme (bovine milk) in buffer; from tissue; host or cells: bovine milk
Briefly: In vitro xanthine oxidase (XO) assay, uric acid formation at 295 nm with xanthine as substrate. The experiment is classed as biochemical. To be noted: for Xanthine Oxidase Kinetic Mode: Lineweaver-Burk and Dixon plots; for inhibition at 100 µM: read-out: Xanthine Oxidase Inhibition %; for IC50: repeated three times.
Method: We subsequently analyzed the type of inhibition using both Lineweaver–Burk (Figure 2C) and Dixon (Figure 2D) plots.
XO activity was assayed spectrophotometrically on a Spectra Max M2 microplate reader, using published experimental procedures, with slight modifications. First, 135 µL of 100 mM sodium pyrophosphate buffer (HCl, pH 7.5), 20 µL of 0.2 unit XO enzyme (bovine milk) in buffer, and 5 µL of sample (test extract or compound) in DMSO were mixed at 37 °C. The reaction was started by adding 40 µL of substrate (0.5 mM xanthine) in buffer to the mixture. The reaction mixture (200 µL) was incubated at 37 °C in a 300 µL well plate, and the UV absorbance was determined at 295 nm.

Experiment [3] addresses T1, xanthine oxidase (XO) enzyme (bovine milk). To be noted: cited from earlier work; for XO inhibitory effect (in words): literature statement, ref 23 (Cos et al.).
The mark [4] stands for this setting: isolated compounds and controls, read-out: Xanthine Oxidase IC50.
Where [5] appears, read: sample concentration 100 µM for each compound.

T1 sequence (P80457 whole entry): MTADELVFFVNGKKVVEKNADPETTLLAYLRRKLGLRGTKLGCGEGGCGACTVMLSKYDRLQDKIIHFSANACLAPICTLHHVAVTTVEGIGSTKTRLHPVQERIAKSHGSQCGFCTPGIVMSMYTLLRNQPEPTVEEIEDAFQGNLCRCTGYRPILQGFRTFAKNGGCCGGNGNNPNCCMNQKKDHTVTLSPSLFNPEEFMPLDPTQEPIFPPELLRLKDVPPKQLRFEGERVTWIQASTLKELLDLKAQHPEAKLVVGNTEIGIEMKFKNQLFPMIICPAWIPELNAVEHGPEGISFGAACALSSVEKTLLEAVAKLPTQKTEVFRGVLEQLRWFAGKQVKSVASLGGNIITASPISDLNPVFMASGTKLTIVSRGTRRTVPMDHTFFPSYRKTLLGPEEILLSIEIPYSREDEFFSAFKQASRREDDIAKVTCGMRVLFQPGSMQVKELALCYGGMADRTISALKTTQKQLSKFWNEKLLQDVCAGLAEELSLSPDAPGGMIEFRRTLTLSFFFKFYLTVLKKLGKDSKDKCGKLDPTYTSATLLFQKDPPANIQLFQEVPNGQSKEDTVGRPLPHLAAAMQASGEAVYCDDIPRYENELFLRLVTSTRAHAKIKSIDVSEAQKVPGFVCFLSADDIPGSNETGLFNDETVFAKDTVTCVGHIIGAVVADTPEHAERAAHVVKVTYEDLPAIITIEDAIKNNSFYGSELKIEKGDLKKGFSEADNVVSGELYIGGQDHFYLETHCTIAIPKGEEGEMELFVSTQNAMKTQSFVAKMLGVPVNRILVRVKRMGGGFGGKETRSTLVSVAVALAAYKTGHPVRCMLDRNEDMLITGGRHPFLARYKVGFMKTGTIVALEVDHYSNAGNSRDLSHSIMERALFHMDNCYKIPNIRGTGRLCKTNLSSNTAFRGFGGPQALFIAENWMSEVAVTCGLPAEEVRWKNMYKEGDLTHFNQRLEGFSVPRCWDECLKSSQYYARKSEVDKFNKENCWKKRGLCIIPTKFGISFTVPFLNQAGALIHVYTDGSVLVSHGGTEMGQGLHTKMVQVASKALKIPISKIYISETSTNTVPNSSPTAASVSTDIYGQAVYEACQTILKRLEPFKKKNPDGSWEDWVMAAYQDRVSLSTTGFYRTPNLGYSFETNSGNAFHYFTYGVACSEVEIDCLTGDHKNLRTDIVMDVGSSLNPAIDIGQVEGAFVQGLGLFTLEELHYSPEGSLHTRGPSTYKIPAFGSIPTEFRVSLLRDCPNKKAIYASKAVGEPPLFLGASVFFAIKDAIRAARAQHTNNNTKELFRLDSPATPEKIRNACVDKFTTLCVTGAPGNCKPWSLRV

Regarding `Oc1ncnc2[nH]ncc12` [Allopurinol, allopurinol, reference compound], the “decrease in serum uric acid level” value in experiment [1] (10 mg/kg oral gavage, positive control, rats) is reported as 43.5%. For the same compound, in experiment [2], the “Xanthine Oxidase Kinetic Mode” value is recorded as “Competitive” and the inhibition at 100 µM is above 98%.

As for `C[C@@H]1O[C@@H](OC[C@H]2O[C@@H](Oc3c(-c4ccc(O)c(O)c4)oc4cc(O)cc(O)c4c3=O)[C@H](O)[C@@H](O)[C@@H]2O)[C@H](O)[C@H](O)[C@H]1O` [Compound 1, quercetin-3-O-rutinoside], the IC50 in experiment [2] (setting [4]) was above 100 µM. In addition, in experiment [2] (setting [5]), the inhibition at 100 µM stood at 42.9 ± 1.4%.

As for `O=c1c(O[C@@H]2O[C@H](CO)[C@@H](O)[C@H](O)[C@H]2O)c(-c2ccc(O)c(O)c2)oc2cc(O)cc(O)c12` [Compound 2, quercetin-3-O-β-D-glucopyranoside], the IC50 in experiment [2] (setting [4]) was above 100 µM. Also, in experiment [2] (setting [5]), the inhibition at 100 µM was 47.8 ± 1.1%.

For `O=C(OC[C@H]1O[C@@H](OC(=O)c2cc(O)c(O)c(O)c2)[C@H](OC(=O)c2cc(O)c(O)c(O)c2)[C@@H](OC(=O)c2cc(O)c(O)c(O)c2)[C@@H]1OC(=O)c1cc(O)c(O)c(O)c1)c1cc(O)c(O)c(O)c1` [Compound 3, 1,2,3,4,6-penta-O-galloyl-β-D-glucopyranose], in experiment [1] (40 mg/kg oral gavage 1 h after PO, blood 2 h after treatment, rats), the “reduction in serum uric acid levels compared to the PO group” value is given as 20.7%. The “effect on serum uric acid levels (in words)” value in experiment [1] is on record as “significantly decreased serum uric acid levels; also recorded: lowered serum uric acid levels”. Moreover, the Ki in experiment [2] (Dixon plots, substrate 50, 100, 200 µM, read-out: Xanthine Oxidase Ki (inhibition constant)) turned out to be 3.1 µM. In experiment [2], the “Xanthine Oxidase Kinetic Mode” value is “noncompetitive inhibitor”. Besides, in experiment [2] (compound 0-12.5 μM versus XO 0-0.2 unit/mL), the “reversibility of XO inhibition” value is given as “reversible XO inhibitor”. Moreover, the IC50 in experiment [2] (setting [4]) was 2.8 µM and 2.79 µM. For the same compound, in experiment [2] (setting [5]), the inhibition at 100 µM worked out at 96.4 ± 0.7%.

In the case of `CC1OC(Oc2c(-c3ccc(O)c(O)c3)oc3cc(O)cc(O)c3c2=O)C(O)C(O)C1O` [Compound 4, quercetin-3-O-α-L-rhamnopyranoside], the “effect on serum uric acid levels (in words)” value in experiment [1] is “no effect”. Besides, in experiment [2] (Xanthine Oxidase IC50, isolated compounds and controls), the IC50 is above 100 µM. Also, the inhibition at 100 µM in experiment [2] was determined as 38.9 ± 1.9%.

For the compound `O=c1[nH]c(=O)c2c[nH]nc2[nH]1` [Oxypurinol, oxypurinol, reference compound], the “XO inhibitory activity compared to allopurinol (in words)” value in experiment [3] (XO screening, ref 25 (Tamta et al.)) is given as “much lower inhibitory activity than allopurinol”. Further, the IC50 in experiment [2] (setting [4]) is 28.4 ± 0.5 µM. In experiment [2] (setting [5]), the inhibition at 100 µM is 87.6 ± 0.9%.

With `O=c1c(O)c(-c2ccc(O)cc2)oc2cc(O)cc(O)c12` [kaempferol], the “XO inhibitory effect (in words)” value in experiment [3] is “strong XO inhibitory effects”.

With `O=c1c(O)c(-c2ccc(O)c(O)c2)oc2cc(O)cc(O)c12` [quercetin], in experiment [3], the “XO inhibitory effect (in words)” value is given as “strong XO inhibitory effects”.
